{
  "source": "patent US20210177806A1",
  "about": "“COMBINATION PHARMACEUTICAL, PROPHYLACTIC OR SUPPRESSIVE AGENT FOR DEVELOPMENT OF RESISTANCE TO PYRIMIDINE ANTIMETABOLITE, AND METHOD OF TREATING DISEASE” (FUJIFILM Corporation, priority 2018, published 2021)",
  "key": {"[1]": {"tested_on": "SKM-1 leukemia cell line", "assay": "Cell proliferation assay for azacitidine after long-term culture (development of resistance)", "type": "cell-based", "details": "for sensitivity to azacitidine (dose-response curve) / development of resistance: Aza group: SKM-1 treated 4 months with azacitidine only, 50 nmol/L to 1.6 mol/L", "method": "SKM-1 (National Institute of Biomedical Innovation, Health and Nutrition) was used as leukemia cell line. Cells were cultured in RPMI 1640 medium (Life Technologies) containing 1% penicillin/streptomycin and 10% fetal bovine serum (FBS) in an environment of 37° C., 5% CO2 and saturated water vapor.\nThe respective cultures were subjected to long-term culture. The concentration of azacitidine was 50 nmol/L at the start and was doubled at 2-4 week intervals. When cultured for 2 weeks after the azacitidine concentration had reached […], the treated groups were subjected to an assay for cell proliferation for azacitidine.\nIn the cell proliferation assay, cells were first suspended in a medium so that the number of cells was 111,111 cells/mL, and 90 μL (10,000 cells) each of the resultant was seeded in a 96-well plate (Corning Incorporated) per well. Next, 10 μL of a PBS solution of azacitidine (0, 3, 10, 30, 100 or 300 μmon) was added to the plate, and the cells were cultured in an environment of 37° C., 5% CO2 and saturated water vapor for 72 hours.\nThe relative number of the cancer cells after the above incubation was measured in terms of emission intensity using Cell Titer Glo (Promega Corporation) reagent by a plate reader (Envision, PerkinElmer Inc.). With the number of cells at a concentration of azacitidine of 0 μmol/L as 100% and the emission intensity of the sample to which no cells were added as 0%, the relative value of emission intensity was calculated at each azacitidine concentration. The results of each group were plotted with the azacitidine concentration (mon) on the horizontal axis and the emission intensity (relative value) on the vertical axis.\nAza: SKM-1 cells treated for 4 months with gradual increase in the concentration of azacitidine (50 nmol/L to […]) Aza+A1: SKM-1 cells which were treated in the same manner as in the Aza group and to which Compound A was added at 1 μmon throughout the period of treatment. Aza+A10: SKM-1 cells which were treated in the same manner as in the Aza group and to which Compound A was added at 1 μmon throughout the period of treatment"}, "[2]": {"tested_on": "intracellular CTP (cytidine triphosphate) in leukemia cells (SKM-1)", "assay": "Amount of intracellular CTP in leukemia cells after 4-month exposure", "type": "cell-based", "method": "Intracellular CTP (cytidine triphosphate) competes with Aza-CTP (an active metabolite of Aza) and an increased amount of CTP may reduce sensitivity to Aza. […] Then, studies were conducted on the assumption that exposure to Compound A or a salt thereof or a hydrate thereof and Aza for a long time is effective for the recovery or retainment of sensitivity to Aza with the expectation that Compound A or a salt thereof or a hydrate thereof has an inhibitory effect on CTP increase.\nThe result is that a long-term (4 months) exposure of leukemia cells to a combination of Aza and Compound A.¾ hydrate caused a change in Aza sensitivity. […] Thus, treating an untreated MDS patient with a combination of Aza and Compound A or a salt thereof or a hydrate thereof is considered to be effective for maintaining their sensitivity to Aza."}, "[3]": {"tested_on": "MDS patients", "details": "AZA-001 test, cited from earlier work"}, "[4]": {"tested_on": "MDS patients", "assay": "Administration to MDS patients (Examples 2 to 5)", "type": "in vivo", "details": "for effect on the development of resistance to pyrimidine antimetabolite: 28-day cycle", "method": "(§1) Compound A is administered to MDS patients (over 18 years of age) at a dose per one time of 400 mg/m^2 twice a day for 14 days. Administration of azacitidine is started on the day when the administration of Compound A is started. Azacitidine is administered subcutaneously or intravenously at a dose of 75 mg/m^2 for 7 days. The treatment cycle consists of 28 days. After the administration for 7 days, the administration is discontinued for 21 days.\nas §1, with “21” for “14”, “days.” for “days. Administration of azacitidine is started on the day when the administration of Compound A is started.”\nas §1, with “time of 300 mg/m^2 twice” for “time of 400 mg/m^2 twice”, “21 days. […] The day of the start of administration of Compound A may be earlier than the day of the start of administration of azacitidine. Furthermore, Compound A may be administered twice a day for 21 days as in Example 3.” for “21 days.”\nas §1, with “time of 200 mg/m^2 twice” for “time of 400 mg/m^2 twice”, “21 days. […] The day of the start of administration of Compound A may be earlier than the day of the start of administration of azacitidine. Furthermore, Compound A may be administered twice a day for 21 days as in Example 3.” for “21 days.”\nFor the MDS patients in Examples 2 to 5, the therapeutic effect is evaluated for the following items in comparison with the outcome of an azacitidine single agent+BSC (Best Supportive Care: Support therapy, transfusion, administration of antibiotics, analgesics, antipyretics, antiemetics, etc. as required) (International Phase III Test “Aza-001”). The period for which the development of resistance to pyrimidine antimetabolite is prevented or suppressed in the above patients is preferably 3 months or more, preferably 4 months or more, preferably 5 months or more, preferably 6 months or more, and preferably 1 year or more."}, "[5]": {"tested_on": "azacitidine-resistant leukemia cell lines", "details": "cited from earlier work"}},
  "note": "Entries after “also recorded” stand apart in the source; their conditions may differ.",
  "data": [
    {"smiles": "Nc1ncn([C@@H]2O[C@H](CO)[C@@H](O)[C@H]2O)c(=O)n1", "note": "[azacitidine, 4-amino-1-β-D-ribofuranosyl-1,3,5-triazin-2(1H)-one]", "values": [
      {"measurement": "sensitivity to azacitidine (dose-response curve) / development of resistance", "setting": "[1]", "value": "the dose-response curve shifted to the right"},
      {"measurement": "sensitivity to azacitidine (dose-response curve) / development of resistance", "setting": "[1]; listed as Aza", "value": "resulting in the development of resistance"},
      {"measurement": "emission intensity (relative value) / number of viable cells", "setting": "[1]; SKM-1, all groups, azacitidine 72 hours, Cell Titer Glo", "value": "decreased azacitidine concentration-dependently"},
      {"measurement": "amount of intracellular CTP", "setting": "[2]; 4-month exposure to only Aza", "value": "an increase in the amount of intracellular CTP"},
      {"measurement": "2-year survival rate", "setting": "[3]", "value": 50.8, "unit": "%"},
      {"measurement": "Hematologic response rate according to IWG criteria (2000 edition)", "setting": "[3]", "value": 6.7, "unit": "%"},
      {"measurement": "Hematological improvement according to IWG criteria (2000 edition)", "setting": "[3]", "value": 49.2, "unit": "%"},
      {"measurement": "Median time of AML transformation", "setting": "[3]", "value": 20.7, "unit": "months"},
      {"measurement": "Median time of AML transformation or death", "setting": "[3]", "value": 13.0, "unit": "months"},
      {"measurement": "Survival (median)", "setting": "[3]", "value": 24.5, "unit": "months"},
      {"measurement": "patients who achieved platelet transfusion-independence from dependence", "setting": "[3]; no platelet transfusions for consecutive 56 days or more", "value": 42.1, "unit": "%"},
      {"measurement": "patients who achieved red blood cell transfusion-independence from dependence", "setting": "[3]; no red blood cell transfusions for consecutive 56 days or more", "value": 45.0, "unit": "%"}
    ]},
    {"smiles": "NC(=O)c1nc[nH]c1O", "note": "[Compound A, 5-Hydroxy-1H-imidazole-4-carboxamide]", "values": [
      {"measurement": "effect on the development of resistance to Aza", "setting": "[1]; 4-month exposure of naive SKM-1 to Aza and Compound A (1 mon or 10 μmon)", "value": "prophylactic or suppressive effect; also recorded: almost complete elimination of the development of resistance to Aza"},
      {"measurement": "sensitivity to azacitidine (dose-response curve)", "setting": "[1]; Aza+A1 group: treated as Aza group plus Compound A at 1 μmon throughout", "value": "almost the same as that of the control group"},
      {"measurement": "sensitivity to azacitidine (dose-response curve)", "setting": "[1]; Aza+A10 group: treated as Aza group plus Compound A at 10 mon throughout", "value": "almost the same as that of the control group"},
      {"measurement": "amount of intracellular CTP", "setting": "[2]; Aza and Compound A combined from the start of the treatment", "value": "kept at a level similar to that in untreated cells"},
      {"measurement": "effect on the development of resistance to pyrimidine antimetabolite", "setting": "[4]; Example 2: Compound A 400 mg/m^2 twice a day for 14 days with azacitidine 75 mg/m^2 for 7 days", "value": "prophylactic or suppressive effect"},
      {"measurement": "effect on the development of resistance to pyrimidine antimetabolite", "setting": "[4]; Example 3: Compound A 400 mg/m^2 twice a day for 21 days with azacitidine 75 mg/m^2 for 7 days", "value": "prophylactic or suppressive effect"},
      {"measurement": "side effects in patients", "setting": "[4]; Example 4: Compound A 300 mg/m^2 twice a day for 14 days with azacitidine", "value": "side effects in patients can be reduced"},
      {"measurement": "effect on the development of resistance to pyrimidine antimetabolite", "setting": "[4]; Example 4: Compound A 300 mg/m^2 twice a day for 14 days with azacitidine 75 mg/m^2 for 7 days", "value": "prophylactic or suppressive effect"},
      {"measurement": "side effects in patients", "setting": "[4]; Example 5: Compound A 200 mg/m^2 twice a day for 14 days with azacitidine", "value": "side effects in patients can be reduced"},
      {"measurement": "effect on the development of resistance to pyrimidine antimetabolite", "setting": "[4]; Example 5: Compound A 200 mg/m^2 twice a day for 14 days with azacitidine 75 mg/m^2 for 7 days", "value": "prophylactic or suppressive effect"},
      {"measurement": "cell growth inhibitory activity / cross resistance", "setting": "[5]", "value": "cell growth inhibitory activity without cross resistance"}
    ]}
  ]
}
